Results as given in US12098139B2, “Chemokine receptor modulators and uses thereof” (RAPT Therapeutics, Inc., priority 2018, dated 2024).

Each compound was assayed against T1, hCCR4 (Chem5-hCCR4 cells) (Homo sapiens, UniProt P51679) (assay: Calcium flux assay (CCL22-stimulated, FLIPR Calcium 6 dye)). Settings: Table 3, CCL22 1.5 nM, read-out: Potency (IC50).
T1 sequence (P51679 1-360): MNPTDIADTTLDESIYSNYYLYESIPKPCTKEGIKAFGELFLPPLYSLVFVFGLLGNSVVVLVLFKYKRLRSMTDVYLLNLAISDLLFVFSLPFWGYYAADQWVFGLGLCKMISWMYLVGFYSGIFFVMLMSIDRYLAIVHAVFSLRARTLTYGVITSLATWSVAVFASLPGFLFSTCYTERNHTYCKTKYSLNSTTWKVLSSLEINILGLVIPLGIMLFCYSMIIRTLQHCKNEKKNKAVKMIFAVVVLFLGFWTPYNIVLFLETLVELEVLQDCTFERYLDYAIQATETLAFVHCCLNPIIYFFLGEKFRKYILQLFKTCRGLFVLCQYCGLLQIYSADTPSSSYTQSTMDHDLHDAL
Format: cell-based
Outline: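 Chem5-hCCR4 cells were serum-starved 2 h and loaded 2 h with Calcium 6 dye plus 2.5 mM probenecid. They were then preincubated 1 h at 37 °C with compound (0.5% DMSO). CCL22 was added from a 7.5 nM working solution (5× EC80), and ΔF/Fmin at 485/525 nm was fitted 4-parameter for IC50.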

| Structure (SMILES) | IC50 [µM] |
| --- | --- |
| C[C@@H](Nc1nc(N2CC([C@H]3CCCN(CCO)C3)C2)ncc1C#N)c1ccc(S(C)(=O)=O)cc1Cl [Example 42, 4-(((R)-1-(2-chloro-4-(methylsulfonyl)phenyl)ethyl)amino)-2-(3-((R)-1-(2-hydroxyethyl)piperidin-3-yl)azetidin-1-yl)pyrimidine-5-carbonitrile] | > 0.5 |
| C[C@@H](Nc1nc(N2CC([C@H]3CCCN(CCO)C3)C2)ncc1Br)c1ccc(F)cc1Cl [Example 43, 2-((R)-3-(1-(5-bromo-4-(((R)-1-(2-chloro-4-fluorophenyl)ethyl)amino)pyrimidin-2-yl)azetidin-3-yl)piperidin-1-yl)ethan-1-ol] | < 0.1 |
| C[C@@H](Nc1nc(N2CC([C@H]3CCCN(CCO)C3)C2)ncc1Cl)c1ccc(F)cc1Cl [Example 44, 2-((R)-3-(1-(5-chloro-4-(((R)-1-(2-chloro-4-fluorophenyl)ethyl)amino)pyrimidin-2-yl)azetidin-3-yl)piperidin-1-yl)ethan-1-ol] | 0.1 to 0.5 |
| C[C@@H](Nc1nc(N2CC([C@H]3CCCN([C@H]4C[C@](C)(C(=O)O)C4)C3)C2)ncc1Br)c1ccc(F)cc1Cl [Example 45, (1R,3r)-3-((R)-3-(1-(5-bromo-4-(((R)-1-(2-chloro-4-fluorophenyl)ethyl)amino)pyrimidin-2-yl)azetidin-3-yl)piperidin-1-yl)-1-methylcyclobutane-1-carboxylic acid] | < 0.1 |
| C[C@@H](Nc1nc(N2CC([C@H]3CCCN([C@H]4C[C@@H](C(=O)O)C4)C3)C2)ncc1F)c1ccc(Cl)cc1Cl [Example 46, (1S,3s)-3-((R)-3-(1-(4-(((R)-1-(2,4-dichlorophenyl)ethyl)amino)-5-fluoropyrimidin-2-yl)azetidin-3-yl)piperidin-1-yl)cyclobutane-1-carboxylic acid] | > 0.5 |
| C[C@@H](Nc1nc(N2CC([C@H]3CCCN([C@H]4C[C@](C)(C(=O)O)C4)C3)C2)ncc1F)c1ccc(Cl)cc1Cl [Example 47, (1R,3r)-3-((R)-3-(1-(4-(((R)-1-(2,4-dichlorophenyl)ethyl)amino)-5-fluoropyrimidin-2-yl)azetidin-3-yl)piperidin-1-yl)-1-methylcyclobutane-1-carboxylic acid] | 0.1 to 0.5 |
| C[C@@H](Nc1nc(N2CC([C@H]3CCCN(CCO)C3)C2)ncc1F)c1ccc(Cl)cc1Cl [Example 48, 2-((R)-3-(1-(4-(((R)-1-(2,4-dichlorophenyl)ethyl)amino)-5-fluoropyrimidin-2-yl)azetidin-3-yl)piperidin-1-yl)ethan-1-ol] | 0.1 to 0.5 |

Same assay, conditions: Table 4, CCL22 1.5 nM, read-out: Potency (IC50)

| Structure (SMILES) | IC50 [µM] |
| --- | --- |
| C[C@@H](Nc1nc(N2CC([C@H]3CCCN(CCO)C3)C2)cnc1C#N)c1ccc(Cl)cc1S(C)(=O)=O [Example 49, 3-[[(1R)-1-(4-chloro-2-methylsulfonyl-phenyl)ethyl]amino]-5-[3-[(3R)-1-(2-hydroxyethyl)-3-piperidyl]azetidin-1-yl]pyrazine-2-carbonitrile; 2,2,2-trifluoroacetic acid] | > 0.5 |
| C[C@@H](Nc1nc(N2CC([C@H]3CCCN(C4CC(C)(C(=O)O)C4)C3)C2)cnc1C#N)c1ccc(Cl)cc1Cl (stereo partly drawn) [Example 51, 3-[(1S,3R)-3-[1-[5-cyano-6-[[(1R)-1-(2,4-dichlorophenyl)ethyl]amino]pyrazin-2-yl]azetidin-3-yl]-1-piperidyl]-1-methyl-cyclobutanecarboxylic acid; 2,2,2-trifluoroacetic acid] | > 0.5 |
| C[C@@H](Nc1cnc(C#N)c(N2CC([C@H]3CCCN(CCC(=O)O)C3)C2)n1)c1ccc(Cl)cc1Cl [Example 53, 3-(3-(1-(3-cyano-6-(((R)-1-(2,4-dichlorophenyl)ethyl)amino)pyrazin-2-yl)azetidin-3-yl)piperidin-1-yl)propanoic acid] | > 0.5 |

Same assay, conditions: Table 5, CCL22 1.5 nM, read-out: Potency (IC50)

| Structure (SMILES) | IC50 [µM] |
| --- | --- |
| C[C@@H](Nc1nc(N2CC([C@H]3CCCN(CC(=O)N4CCCC4)C3)C2)ncc1Cl)c1ccc(Cl)cc1Cl [Example 56, 2-[(3R)-3-[1-[5-chloro-4-[[(1R)-1-(2,4-dichlorophenyl)ethyl]amino]pyrimidin-2-yl]azetidin-3-yl]-1-piperidyl]-1-pyrrolidin-1-yl-ethanone; 2,2,2-trifluoroacetic acid] | 0.1 to 0.5 |
| CC(O)c1cnc(N2CC([C@H]3CCCN([C@H]4C[C@](C)(C(=O)O)C4)C3)C2)nc1N[C@H](C)c1ccc(Cl)cc1Cl (stereo partly drawn) [Example 58, 3-[(3R)-3-[1-[4-[[(1R)-1-(2,4-dichlorophenyl)ethyl]amino]-5-(1-hydroxyethyl)pyrimidin-2-yl]azetidin-3-yl]-1-piperidyl]-1-methyl-cyclobutanecarboxylic acid; 2,2,2-trifluoroacetic acid] | < 0.1 |
| C[C@@H](Nc1cc(C(F)(F)F)nc(N2CC([C@H]3CCCN([C@H]4C[C@](C)(C(=O)O)C4)C3)C2)n1)c1ccc(Cl)cc1Cl [Example 59, 3-[(1R)-3-[1-[4-[[(1R)-1-(2,4-dichlorophenyl)ethyl]amino]-6-(trifluoromethyl)pyrimidin-2-yl]azetidin-3-yl]-1-piperidyl]-1-methyl-cyclobutanecarboxylic acid] | 0.1 to 0.5 |
| C[C@@H](Nc1nc(N2CC([C@H]3CCCN(CCO)C3)C2)nc2sccc12)c1ccc(Cl)cc1Cl [Example 61, 2-[(3R)-3-[1-[4-[[(1R)-1-(2,4-dichlorophenyl)ethyl]amino]thieno[2,3-d]pyrimidin-2-yl]azetidin-3-yl]-1-piperidyl]ethanol; 2,2,2-trifluoroacetic acid] | < 0.1 |
| C[C@@H](Nc1nc(N2CC([C@H]3CCCN(CCO)C3)C2)nc2ccsc12)c1ccc(Cl)cc1Cl [Example 62, 2-[(3R)-3-[1-[4-[[(1R)-1-(2,4-dichlorophenyl)ethyl]amino]thieno[3,2-d]pyrimidin-2-yl]azetidin-3-yl]-1-piperidyl]ethanol; 2,2,2-trifluoroacetic acid] | < 0.1 |
| CC(Nc1nc(N2CC([C@H]3CCCN(CCO)C3)C2)ncc1Cl)c1ccc(Cl)cc1F (stereo partly drawn) [Example 63, 2-[(3R)-3-[1-[5-chloro-4-[1-(4-chloro-2-fluoro-phenyl)ethylamino]pyrimidin-2-yl]azetidin-3-yl]-1-piperidyl]ethanol; 2,2,2-trifluoroacetic acid] | < 0.1 |
| C[C@@H](Nc1nc(N2CC([C@H]3CCCN([C@H]4C[C@](C)(C(=O)O)C4)C3)C2)nc2ccc(F)cc12)c1ccc(Cl)cc1Cl [Example 65, 3-[(1R,3R)-3-[1-[4-[[(1R)-1-(2,4-dichlorophenyl)ethyl]amino]-6-fluoro-quinazolin-2-yl]azetidin-3-yl]-1-piperidyl]-1-methyl-cyclobutanecarboxylic acid; 2,2,2-trifluoroacetic acid] | < 0.1 |
| C[C@@H](Nc1nc(N2CC([C@H]3CCCN([C@H]4C[C@@H](C(=O)O)C4)C3)C2)nc2ccc(F)cc12)c1ccc(Cl)cc1Cl [Example 66, 3-[(1S,3R)-3-[1-[4-[[(1R)-1-(2,4-dichlorophenyl)ethyl]amino]-6-fluoro-quinazolin-2-yl]azetidin-3-yl]-1-piperidyl]cyclobutanecarboxylic acid; 2,2,2-trifluoroacetic acid] | < 0.1 |
| C[C@@H](Nc1nc(N2CC([C@H]3CCCN([C@H]4C[C@](C)(C(=O)O)C4)C3)C2)ncc1C(O)C1CC1)c1ccc(Cl)cc1Cl (stereo partly drawn) [Example 70, 3-[(3R)-3-[1-[5-[cyclopropyl(hydroxy)methyl]-4-[[(1R)-1-(2,4-dichlorophenyl)ethyl]amino]pyrimidin-2-yl]azetidin-3-yl]-1-piperidyl]-1-methyl-cyclobutanecarboxylic acid; 2,2,2-trifluoroacetic acid] | < 0.1 |
| CCC(O)c1cnc(N2CC([C@H]3CCCN([C@H]4C[C@](C)(C(=O)O)C4)C3)C2)nc1N[C@H](C)c1ccc(Cl)cc1Cl (stereo partly drawn) [Example 73, 3-[(3R)-3-[1-[4-[[(1R)-1-(2,4-dichlorophenyl)ethyl]amino]-5-(1-hydroxypropyl)pyrimidin-2-yl]azetidin-3-yl]-1-piperidyl]-1-methyl-cyclobutanecarboxylic acid; 2,2,2-trifluoroacetic acid] | < 0.1 |
| CC(C)C(O)c1cnc(N2CC([C@H]3CCCN([C@H]4C[C@](C)(C(=O)O)C4)C3)C2)nc1N[C@H](C)c1ccc(Cl)cc1Cl (stereo partly drawn) [Example 76, 3-[(3R)-3-[1-[4-[[(1R)-1-(2,4-dichlorophenyl)ethyl]amino]-5-(1-hydroxy-2-methyl-propyl)pyrimidin-2-yl]azetidin-3-yl]-1-piperidyl]-1-methyl-cyclobutanecarboxylic acid; 2,2,2-trifluoroacetic acid] | < 0.1 |
| COC(C)c1cnc(N2CC([C@H]3CCCN([C@H]4C[C@](C)(C(=O)O)C4)C3)C2)nc1N[C@H](C)c1ccc(Cl)cc1Cl (stereo partly drawn) [Example 79, 3-[(3R)-3-[1-[4-[[(1R)-1-(2,4-dichlorophenyl)ethyl]amino]-5-(1-methoxyethyl)pyrimidin-2-yl]azetidin-3-yl]-1-piperidyl]-1-methyl-cyclobutanecarboxylic acid; 2,2,2-trifluoroacetic acid] | < 0.1 |
| C[C@@H](Nc1nc(N2CC([C@H]3CCCN(CCO)C3)C2)ncc1C(=O)N1CCCC1)c1ccc(Cl)cc1Cl [Example 85, [4-[[(1R)-1-(2,4-dichlorophenyl)ethyl]amino]-2-[3-[(3R)-1-(2-hydroxyethyl)-3-piperidyl]azetidin-1-yl]pyrimidin-5-yl]-pyrrolidin-1-yl-methanone; 2,2,2-trifluoroacetic acid] | 0.1 to 0.5 |
